Key:
[1] = Procedure: In this study, the stability constant and stoichiometry of the complex were calculated using Benesi-Hildebrant diagram (Equation (1)):Δδmax/Δδ − 1 = 1/[CD]^n × 1/K(1) where K is the stability constant of the complex, and Δδ is change of chemical shift.
Measurement of K values at different temperatures at 30–50 °C allows us to calculate the thermodynamic parameters of the HP-β-CD complex. From the dependence of R × lnK vs. 1/T using formulas (Equation (2)) and (Equation (3)), one can calculate the main thermodynamic parameters of complexation: the change in the Gibbs energy, enthalpy, and entropy:R × lnK = −ΔH^0/T + ΔS^0(2) ΔG^0 = ΔH^0 − TΔS^0(3)
^1H-NMR spectra were recorded on an Avance III 500 MHz spectrometer (Bruker, Rheinstetten, Germany) in D2O and CD3OD (99.8%, Sigma-Aldrich, Moscow, Russia) solutions as well as in their mixture. Spin-spin relaxation time T2 was measured by the Carr-Purcell-Meiboom-Gill (CPMG) pulse sequence.

histamine edema = experiment: Anti-inflammatory study, histamine edema model; format: in vivo, CD-1 mice; settings: oral single administration, doses 5, 10, 20 mg/kg of NIM, p < 0.05 compare to control
Procedure: (§1) CD-1 mice weighing 20–25 g were obtained from the vivarium of the Institute of Cytology and Genetic SB RAS. Animals were kept under standard conditions with free access to water and food with humidity and temperature-controlled rooms with light and dark 12 h cycles.
“Histamine swelling” was reproduced by introducing of 0.05 mL of 0.1% histamine solution under aponeurosis of the hind paw. The test compounds were administered by oral gavage 1 h before administration of inflammatory agent. The swelling degree was evaluated after 5 h by comparison the legs mass with inflammatory agent (m1) and without it (m2). The degree of inflammation (ID) for each mouse was calculated by the following formula (Equation (6)): (6) ID=m1−m2/m2×100%
The statistical analysis was performed using Mann–Whitney U test. Data shown as Mean ± SEM. p < 0.05 was considered to be statistically significant.

[2] = Pharmacokinetic study after a single per os administration; format: in vivo, CD-1 mice
Procedure: as §1
Mice were randomized by weight and divided into groups and deprived of food for 12 h prior to the experiment. […] Complexes were dissolved in distilled water. […] Blood samples were withdrawn after decapitation at 5, 15, 30, 45, 60, 90 120, 180 and 300 min (n = 5 for each time point) after introduction. Then, all the blood samples were centrifuged for 15 min at 1640× g and the supernatant serum fraction was transferred to empty tubes and kept frozen at −20 °C prior to analysis. The preparation of a blood sample was carried out according to the method described by. Briefly, the mouse plasma sample (0.2 mL) was transferred into glass test tube. 3 mL mixture solvent of ethyl acetate and hexane (90:10%, v/v) was added to the tubes and was vortexed for 3 min. Following a centrifugation for 7 min, 1.5 mL of organic phase was removed to another tube and evaporated. The dry residue was reconstituted with 100 μL of acetonitrile, vortexed for 30 s and 20 μL of the mixture was injected into the chromatograph. However, in contrast with noted reference we use HPLC conditions as described in HPLC analyses of this section.

[3] = alcohol solution, 400 nm
[4] = CD-1, mouse, serum, oral, 20 mg/kg
[5] = single per os, NIM dose 20 mg/kg, mice

stability constant of the complex with HP-β-CD, cycle A ([1]; 30 °C, 1:1 complex): 140 M⁻¹ | stability constant of the complex with HP-β-CD, cycle B ([1]; 30 °C, 1:1 complex): 490 M⁻¹ | TΔS^0 of complexation with HP-β-CD, cycle A ([1]; 303 K): -6.7 ± 0.3 kcal/mol | TΔS^0 of complexation with HP-β-CD, cycle B ([1]; 303 K): -8.2 ± 0.5 kcal/mol | ΔG^0 of complexation with HP-β-CD, cycle B ([1]; 303 K): -3.0 kcal/mol | ΔH^0 of complexation with HP-β-CD, cycle A ([1]; 303 K): -10.5 ± 0.5 kcal/mol | ΔH^0 of complexation with HP-β-CD, cycle B ([1]; 303 K): -12.2 ± 1.0 kcal/mol | Tmax [2, 4]: 0.572 h | half-life [2, 4]: 1.48 ± 0.347 h | AUC 0-inf_obs [2, 5]: 3978.88 ± 242.62 mkg/mL*min | Cmax [2, 5]: 38.43 ± 3.25 mkg/mL | stability constant of the chelate complex with magnesium ions [3]: 22,300 ± 7400 M^−1
Compound: CS(=O)(=O)Nc1ccc([N+](=O)[O-])cc1Oc1ccccc1 [NIM, N-(4-nitro-2-phenoxyphenyl)methanesulfonamide]
dose of NIM with significant anti-inflammatory effect (histamine edema): 20 mg/kg
